From publication PMC3119665, “A New Drug Design Targeting the Adenosinergic System for Huntington's Disease” (PLoS ONE, 2011)

How the values were obtained:
A1 adenosine receptor = target: T1, A1 adenosine receptor (Homo sapiens, UniProt P30542); test: Radioligand binding assay
T1 construct: MDS Pharma Services Taiwan
T1 sequence (P30542 1-326): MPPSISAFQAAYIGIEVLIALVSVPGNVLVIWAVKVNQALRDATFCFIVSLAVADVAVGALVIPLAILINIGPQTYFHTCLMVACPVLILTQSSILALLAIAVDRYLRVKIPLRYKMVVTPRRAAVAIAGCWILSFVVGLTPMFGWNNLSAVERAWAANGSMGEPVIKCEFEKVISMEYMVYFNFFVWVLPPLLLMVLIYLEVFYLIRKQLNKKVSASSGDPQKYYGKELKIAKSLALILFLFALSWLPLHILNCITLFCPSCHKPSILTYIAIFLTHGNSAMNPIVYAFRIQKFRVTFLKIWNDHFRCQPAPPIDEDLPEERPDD

Adrenergic β 1 = target: T2, Adrenergic β 1 (Homo sapiens, UniProt P08588); test: Radioligand binding panel (Table S1); details: 10 μM T1-11, n 2
T2 construct: purchased MDS Pharma Services Taiwan

Androgen (Testosterone) = test: Radioligand binding panel (Table S1); set-up: species or system human; details: 10 μM T1-11, n 2
Dopamine D4.4 = target: T3, Dopamine D4.4 (Homo sapiens, UniProt P21917); test: Radioligand binding panel (Table S1); details: 10 μM T1-11, n 2
T3 construct: purchased MDS Pharma Services Taiwan

[1] = target: T4, Epidermal Growth Factor (EGF) (Homo sapiens, UniProt P00533); test: Radioligand binding panel (Table S1); details: 10 μM T1-11, n 2
T4 construct: purchased MDS Pharma Services Taiwan

[2] = target: T5, G Protein-Coupled Receptor, GPR8 (Homo sapiens, UniProt P48146); test: Radioligand binding panel (Table S1); details: 10 μM T1-11, n 2
T5 construct: purchased MDS Pharma Services Taiwan

Gabapentin = test: Radioligand binding panel (Table S1); set-up: species or system rat; details: 10 μM T1-11, n 2
Glutamate, NMDA, Glycine = Glutamate, NMDA, Glycine (Rattus norvegicus, UniProt P35439); test: Radioligand binding panel (Table S1); details: 10 μM T1-11, n 2
[3] = test system: Glutamate, NMDA, Polyamine; test: Radioligand binding panel (Table S1); set-up: species or system rat; details: 10 μM T1-11, n 2
Histamine H2 = target: T6, Histamine H2 (Homo sapiens, UniProt P25021); test: Radioligand binding panel (Table S1); details: 10 μM T1-11, n 2
T6 construct: purchased MDS Pharma Services Taiwan

Histamine H3 = target: T7, Histamine H3 (Homo sapiens, UniProt Q9Y5N1); test: Radioligand binding panel (Table S1); details: 10 μM T1-11, n 2
T7 construct: purchased MDS Pharma Services Taiwan

Imidazoline I2, Central = test: Radioligand binding panel (Table S1); set-up: species or system rat; details: 10 μM T1-11, n 2
Melanocortin MC1 = target: T8, Melanocortin MC1 (Homo sapiens, UniProt Q01726); test: Radioligand binding panel (Table S1); details: 10 μM T1-11, n 2
T8 construct: purchased MDS Pharma Services Taiwan

Muscarinic M1 = target: T9, Muscarinic M1 (Homo sapiens, UniProt P11229); test: Radioligand binding panel (Table S1); details: 10 μM T1-11, n 2
T9 construct: purchased MDS Pharma Services Taiwan

Neuromedin U NMU2 = target: T10, Neuromedin U NMU2 (Homo sapiens, UniProt Q9GZQ4); test: Radioligand binding panel (Table S1); details: 10 μM T1-11, n 2
T10 construct: purchased MDS Pharma Services Taiwan

[4] = target: T11, N-Formyl Peptide Receptor, FPR1 (Homo sapiens, UniProt P21462); test: Radioligand binding panel (Table S1); details: 10 μM T1-11, n 2
T11 construct: purchased MDS Pharma Services Taiwan

Phosphodiesterase PDE4 = test: Radioligand binding panel (Table S1); set-up: species or system human; details: 10 μM T1-11, n 2
Potassium Channel [KATP] = target: T12, Potassium Channel [KATP] (Cricetus cricetus, UniProt Q09427); test: Radioligand binding panel (Table S1); set-up: species or system hamster; details: 10 μM T1-11, n 2
T12 construct: purchased MDS Pharma Services Taiwan
Description: Radoligand binding assays were performed by MDS Pharma Services Taiwan (Taipei, Taiwan) using standard binding protocols. For the binding assay of the A2AR [67], membrane proteins collected from HEK293 cells overexpressing the human A2AR were incubated in reaction buffer [50 mM Tris-HCl (pH 7.4), 10 mM MgCl2, 1 mM EDTA, and 2 U/mL adenosine deaminase] containing ^3H-CGS21680 (50 nM) for 90 min at 25°C. Nonspecific binding was assessed in the presence of 50 µM adenosine- 5′-N-ethylcarboxamide. […] Nonspecific binding was assessed in the presence of 1 µM IB-MECA (Tocris Bioscience, Ellisville, MS, USA).

[5] = target: T13, Prostanoid, Thromboxane A2 (TP) (Homo sapiens, UniProt P21731); test: Radioligand binding panel (Table S1); details: 10 μM T1-11, n 2
T13 construct: purchased MDS Pharma Services Taiwan

Sigma σ2 = target: T14, Sigma σ2 (Rattus norvegicus, UniProt Q5U3Y7); test: Radioligand binding panel (Table S1); details: 10 μM T1-11, n 2
T14 construct: purchased MDS Pharma Services Taiwan

Sodium Channel, Site 2 = test: Radioligand binding panel (Table S1); set-up: species or system rat; details: 10 μM T1-11, n 2
Somatostatin sst2 = target: T15, Somatostatin sst2 (Homo sapiens, UniProt P30874); test: Radioligand binding panel (Table S1); details: 10 μM T1-11, n 2
T15 construct: purchased MDS Pharma Services Taiwan

[6] = target: T16, Transporter, Serotonin (5-Hydroxytryptamine) (SERT) (Homo sapiens, UniProt P31645); test: Radioligand binding panel (Table S1); details: 10 μM T1-11, n 2
T16 construct: purchased MDS Pharma Services Taiwan

Urotensin II = target: T17, Urotensin II (Homo sapiens, UniProt Q9UKP6); test: Radioligand binding panel (Table S1); details: 10 μM T1-11, n 2
T17 construct: purchased MDS Pharma Services Taiwan

Vasopressin V2 = target: T18, Vasopressin V2 (Homo sapiens, UniProt P30518); test: Radioligand binding panel (Table S1); details: 10 μM T1-11, n 2
T18 construct: purchased MDS Pharma Services Taiwan

PC12 cells = test: Annexin V-FITC staining, serum-deprived PC12 cells; type: cell-based, rat; details: T1-11 10 µM, 24 h
Description: An annexin V (FITC-conjugated) apoptosis kit (K101-400; BioVision, Mountain View, CA, USA) was used to analyze apoptotic cells. The experimental protocol followed the manufacturer's instructions and a previous article. In brief, after treatment with serum, serum-free medium, or serum-free medium plus T1-11 of the indicated concentration for 24 h, cells growing on 12-well plates at (3∼4)×10^5 cells/well were loaded with 0.5 ml binding buffer and 5 µl annexin V-FITC. After incubation for 5 min in the dark, cells were washed once with 1 ml of culture medium (without phenol red) for fluorescent imaging analyses (Axiovert-200M, Carl Zeiss, Gôttingen, Germany) or a flow cytometric analysis (Beckton Dickinson, Franklin Lakes, NJ, USA). Median values of the FITC fluorescent intensities were determined using an FL-1 channel (488/530Ex/Em nm). Five thousand live cells were analyzed per sample.

[7] = n.s. = not significant, no significant binding at 10 µM

T5 sequence (P48146 whole entry): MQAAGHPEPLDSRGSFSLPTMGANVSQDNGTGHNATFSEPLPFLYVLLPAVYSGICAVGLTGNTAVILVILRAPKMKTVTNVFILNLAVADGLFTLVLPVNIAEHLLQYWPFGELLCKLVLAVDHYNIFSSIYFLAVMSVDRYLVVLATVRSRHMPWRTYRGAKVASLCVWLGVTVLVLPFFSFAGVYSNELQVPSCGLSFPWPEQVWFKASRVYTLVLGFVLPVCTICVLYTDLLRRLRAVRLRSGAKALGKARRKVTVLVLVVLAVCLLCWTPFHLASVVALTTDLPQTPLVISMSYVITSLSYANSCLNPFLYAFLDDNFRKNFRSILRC
T13 sequence (P21731 whole entry): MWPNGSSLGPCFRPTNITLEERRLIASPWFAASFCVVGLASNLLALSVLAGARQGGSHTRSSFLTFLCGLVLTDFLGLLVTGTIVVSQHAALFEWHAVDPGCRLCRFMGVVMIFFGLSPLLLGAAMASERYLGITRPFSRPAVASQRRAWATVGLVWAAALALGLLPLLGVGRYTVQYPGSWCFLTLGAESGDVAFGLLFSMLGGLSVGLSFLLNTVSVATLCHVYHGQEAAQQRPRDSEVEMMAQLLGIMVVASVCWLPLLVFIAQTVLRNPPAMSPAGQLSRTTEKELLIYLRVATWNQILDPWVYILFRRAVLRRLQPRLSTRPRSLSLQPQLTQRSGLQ
T3 sequence (P21917 whole entry): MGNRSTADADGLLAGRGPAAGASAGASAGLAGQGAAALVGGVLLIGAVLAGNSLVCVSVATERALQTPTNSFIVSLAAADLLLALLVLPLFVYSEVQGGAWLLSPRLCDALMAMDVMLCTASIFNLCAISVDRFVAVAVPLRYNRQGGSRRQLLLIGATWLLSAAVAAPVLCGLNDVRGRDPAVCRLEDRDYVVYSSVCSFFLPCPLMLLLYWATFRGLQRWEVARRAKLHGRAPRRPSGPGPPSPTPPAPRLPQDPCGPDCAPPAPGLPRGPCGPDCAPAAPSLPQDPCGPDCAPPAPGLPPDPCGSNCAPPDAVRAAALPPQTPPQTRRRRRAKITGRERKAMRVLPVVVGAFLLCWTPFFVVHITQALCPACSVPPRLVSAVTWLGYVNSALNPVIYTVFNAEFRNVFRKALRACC
T2 sequence (P08588 whole entry): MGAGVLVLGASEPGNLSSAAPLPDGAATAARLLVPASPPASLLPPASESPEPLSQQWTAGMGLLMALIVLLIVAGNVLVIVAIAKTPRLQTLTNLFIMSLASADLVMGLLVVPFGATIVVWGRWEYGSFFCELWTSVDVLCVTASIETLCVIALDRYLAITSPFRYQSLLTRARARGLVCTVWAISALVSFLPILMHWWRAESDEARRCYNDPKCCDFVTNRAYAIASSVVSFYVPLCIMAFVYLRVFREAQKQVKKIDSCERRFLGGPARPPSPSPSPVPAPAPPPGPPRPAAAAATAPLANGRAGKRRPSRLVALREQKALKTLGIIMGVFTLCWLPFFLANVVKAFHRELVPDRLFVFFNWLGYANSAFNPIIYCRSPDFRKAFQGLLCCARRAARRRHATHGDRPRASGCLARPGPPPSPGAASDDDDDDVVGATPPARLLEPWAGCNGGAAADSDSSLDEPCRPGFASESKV
T4 sequence (P00533 25-1210): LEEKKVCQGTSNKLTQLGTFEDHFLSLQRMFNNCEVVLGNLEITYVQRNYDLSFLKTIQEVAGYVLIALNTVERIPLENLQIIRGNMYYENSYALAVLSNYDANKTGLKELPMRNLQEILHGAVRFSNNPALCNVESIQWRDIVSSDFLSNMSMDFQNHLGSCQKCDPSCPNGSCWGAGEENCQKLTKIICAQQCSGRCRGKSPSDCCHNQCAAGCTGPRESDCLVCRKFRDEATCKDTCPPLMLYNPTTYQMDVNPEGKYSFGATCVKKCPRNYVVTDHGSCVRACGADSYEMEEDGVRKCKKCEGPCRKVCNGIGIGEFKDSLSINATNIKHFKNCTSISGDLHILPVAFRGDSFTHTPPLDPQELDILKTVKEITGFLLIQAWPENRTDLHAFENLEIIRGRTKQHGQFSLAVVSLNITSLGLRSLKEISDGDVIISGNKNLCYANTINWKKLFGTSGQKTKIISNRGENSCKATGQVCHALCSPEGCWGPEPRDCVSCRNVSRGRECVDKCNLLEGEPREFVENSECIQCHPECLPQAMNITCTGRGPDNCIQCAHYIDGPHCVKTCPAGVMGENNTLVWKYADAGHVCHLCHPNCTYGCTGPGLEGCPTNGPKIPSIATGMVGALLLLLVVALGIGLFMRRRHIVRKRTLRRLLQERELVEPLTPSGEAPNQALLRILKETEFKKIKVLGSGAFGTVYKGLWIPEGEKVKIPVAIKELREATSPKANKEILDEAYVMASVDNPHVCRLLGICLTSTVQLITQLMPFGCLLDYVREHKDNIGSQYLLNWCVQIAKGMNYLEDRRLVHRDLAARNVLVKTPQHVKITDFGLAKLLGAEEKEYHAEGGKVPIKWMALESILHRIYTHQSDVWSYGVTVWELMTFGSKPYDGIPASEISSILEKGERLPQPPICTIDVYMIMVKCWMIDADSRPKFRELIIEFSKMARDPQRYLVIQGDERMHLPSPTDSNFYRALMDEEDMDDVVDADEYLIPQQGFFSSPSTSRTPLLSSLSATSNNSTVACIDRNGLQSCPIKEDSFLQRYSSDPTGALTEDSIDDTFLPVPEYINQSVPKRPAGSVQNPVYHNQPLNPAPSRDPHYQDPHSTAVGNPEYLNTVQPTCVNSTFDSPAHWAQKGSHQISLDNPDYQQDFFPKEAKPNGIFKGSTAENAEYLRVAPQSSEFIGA
Glutamate, NMDA, Glycine, sequence (P35439 394-800 limits assumed): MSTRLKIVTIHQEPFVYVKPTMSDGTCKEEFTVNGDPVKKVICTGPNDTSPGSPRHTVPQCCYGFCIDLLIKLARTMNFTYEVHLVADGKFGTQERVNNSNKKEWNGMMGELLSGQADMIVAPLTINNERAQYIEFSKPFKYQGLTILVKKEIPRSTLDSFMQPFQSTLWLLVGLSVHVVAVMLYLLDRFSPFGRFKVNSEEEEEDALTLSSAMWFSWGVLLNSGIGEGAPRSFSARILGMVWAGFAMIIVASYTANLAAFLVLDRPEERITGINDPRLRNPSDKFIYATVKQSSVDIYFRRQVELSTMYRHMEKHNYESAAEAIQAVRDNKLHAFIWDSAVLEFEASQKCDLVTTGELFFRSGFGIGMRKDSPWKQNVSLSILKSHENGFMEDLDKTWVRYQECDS
T10 sequence (Q9GZQ4 whole entry): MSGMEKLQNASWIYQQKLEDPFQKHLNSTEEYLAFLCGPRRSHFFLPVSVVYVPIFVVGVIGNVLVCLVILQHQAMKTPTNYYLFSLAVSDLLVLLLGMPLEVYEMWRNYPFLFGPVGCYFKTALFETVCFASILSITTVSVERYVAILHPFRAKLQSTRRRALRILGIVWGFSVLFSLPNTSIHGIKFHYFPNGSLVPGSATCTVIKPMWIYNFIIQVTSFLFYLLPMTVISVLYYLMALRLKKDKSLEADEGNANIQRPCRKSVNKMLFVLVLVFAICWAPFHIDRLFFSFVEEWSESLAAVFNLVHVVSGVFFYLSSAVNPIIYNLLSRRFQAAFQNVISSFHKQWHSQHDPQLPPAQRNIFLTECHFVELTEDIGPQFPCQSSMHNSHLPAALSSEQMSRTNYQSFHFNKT
T17 sequence (Q9UKP6 whole entry): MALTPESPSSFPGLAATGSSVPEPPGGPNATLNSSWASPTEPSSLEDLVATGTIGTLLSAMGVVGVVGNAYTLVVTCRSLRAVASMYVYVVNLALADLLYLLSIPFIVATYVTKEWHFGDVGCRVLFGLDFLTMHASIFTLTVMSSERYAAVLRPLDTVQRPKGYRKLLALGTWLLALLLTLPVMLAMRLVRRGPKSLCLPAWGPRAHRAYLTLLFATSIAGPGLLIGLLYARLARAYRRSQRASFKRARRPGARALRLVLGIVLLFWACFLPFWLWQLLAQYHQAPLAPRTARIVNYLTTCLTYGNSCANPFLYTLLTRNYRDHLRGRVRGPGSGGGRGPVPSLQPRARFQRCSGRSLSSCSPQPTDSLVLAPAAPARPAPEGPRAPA
T6 sequence (P25021 whole entry): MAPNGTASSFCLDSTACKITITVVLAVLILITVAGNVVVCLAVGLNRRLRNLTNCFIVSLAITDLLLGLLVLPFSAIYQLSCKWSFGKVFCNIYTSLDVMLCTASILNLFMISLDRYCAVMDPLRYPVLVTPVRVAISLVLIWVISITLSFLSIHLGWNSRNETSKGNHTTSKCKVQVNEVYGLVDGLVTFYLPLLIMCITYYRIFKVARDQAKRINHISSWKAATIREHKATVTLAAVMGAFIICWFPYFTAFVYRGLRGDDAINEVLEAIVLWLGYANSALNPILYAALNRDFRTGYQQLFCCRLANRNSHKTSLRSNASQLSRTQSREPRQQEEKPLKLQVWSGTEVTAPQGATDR
T8 sequence (Q01726 whole entry): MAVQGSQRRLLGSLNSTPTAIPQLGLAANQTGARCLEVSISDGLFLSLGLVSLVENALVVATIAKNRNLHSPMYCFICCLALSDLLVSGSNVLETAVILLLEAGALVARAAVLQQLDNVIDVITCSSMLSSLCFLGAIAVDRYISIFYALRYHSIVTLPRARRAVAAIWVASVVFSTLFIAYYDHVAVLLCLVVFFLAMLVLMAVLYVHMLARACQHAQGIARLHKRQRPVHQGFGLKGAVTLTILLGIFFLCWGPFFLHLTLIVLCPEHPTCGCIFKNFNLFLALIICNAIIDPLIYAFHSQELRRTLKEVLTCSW
T14 sequence (Q5U3Y7 whole entry): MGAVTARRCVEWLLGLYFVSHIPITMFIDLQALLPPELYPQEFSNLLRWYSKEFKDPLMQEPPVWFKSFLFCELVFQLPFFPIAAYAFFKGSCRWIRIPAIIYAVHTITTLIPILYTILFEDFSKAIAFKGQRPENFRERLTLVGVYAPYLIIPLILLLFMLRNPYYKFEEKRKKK

OC[C@H]1O[C@@H](n2cnc3c(NCc4ccc(O)cc4)ncnc32)[C@H](O)[C@@H]1O [T1-11, N ^6-(4-hydroxybenzyl)adenine riboside] was tested, and the inhibition at 10 µM (A1 adenosine receptor; 10 μM T1-11, n 2) was 23%, the IC50 (A1 adenosine receptor; [7]) was “n.s” and the Ki (A1 adenosine receptor; [7]) was “n.s”. The inhibition at 10 µM (Adrenergic β 1) was 7%, the “% Inhibition” value (Androgen (Testosterone)) was 3% and the inhibition at 10 µM (Dopamine D4.4) was 8%. For the same compound, the inhibition at 10 µM [1] was -5%, the inhibition at 10 µM [2] was 15% and the “% Inhibition” value (Gabapentin) was 8%. For the same compound, the inhibition at 10 µM (Glutamate, NMDA, Glycine) was 7%, the “% Inhibition” value [3] was 10% and the inhibition at 10 µM (Histamine H2) was -10%. The inhibition at 10 µM (Histamine H3) was 4%, the “% Inhibition” value (Imidazoline I2, Central) was 3% and the inhibition at 10 µM (Melanocortin MC1) was 3%. The inhibition at 10 µM (Muscarinic M1) was -1%, the inhibition at 10 µM (Neuromedin U NMU2) was 5% and the inhibition at 10 µM [4] was 5%. The “% Inhibition” value (Phosphodiesterase PDE4) was 0%, the inhibition at 10 µM (Potassium Channel [KATP]) was 6% and the inhibition at 10 µM [5] was 1%. For the same compound, the inhibition at 10 µM (Sigma σ2) was -3%, the “% Inhibition” value (Sodium Channel, Site 2) was 3% and the inhibition at 10 µM (Somatostatin sst2) was 9%. It also gave an inhibition at 10 µM [6] of 5%, an inhibition at 10 µM (Urotensin II) of 6% and an inhibition at 10 µM (Vasopressin V2) of -5%. The “Apoptosis (annexin V-FITC)” value (PC12 cells) was “rescued serum-deprived PC12 cells from apoptosis”.
